These results are taken from patent US8883779B2, “Oxazine derivatives and a pharmaceutical composition for inhibiting BACE1 containing them” (Shinogi & Co., Ltd., priority 2011, dated 2014).

SMILES strings stand for the structures.

The nature of data set [1]: Solubility test (turbidity, JP-I / JP-II medium). The data set is classed as physicochemical. Particulars: pH 6.8, aqueous buffer, kinetic from dmso stock, 2% DMSO solution, turbidity after 4 hours, read-out: solubility assessed by 3 stages.
The next data set addresses T1, Recombinant human BACE1 (Homo sapiens, UniProt P56817).
T1 construct: purchased R&D Systems
Kind of data set: Assay of BACE1 inhibiting activity. Format: biochemical. Particulars: Recombinant human BACE1 7.4 nmol/L, substrate peptide 18 nmol/L, pH 5.0, 30° C., 3.5 hours; read-out: 50% inhibitory concentration against the enzymatic activity (IC50). On the procedure: 48.5 μL of substrate peptide solution (Biotin-XSEVNLDAEFRHDSGC-Eu: X=ε-amino-n-capronic acid, Eu=Europium cryptate) was added to each well of 96-hole half-area plate (a black plate: Costar), and after addition of 0.5 μl of the compound of the present invention (DMSO solution) and 1 μl of Recombinant human BACE1(R&D Systems), the reaction mixture was incubated at 30° C. for 3.5 hours. The substrate peptide was synthesized by reacting Cryptate TBPCOOH mono SMP (CIS bio international) with Biotin-XSEVNLDAEFRHDSGC (Peptide Institute, Inc.). The final concentrations of the substrate peptide and Recombinant human BACE1 were adjusted to 18 nmol/L and 7.4 nmol/L, respectively, and the reaction was performed in sodium acetate buffer (50 mmol/L sodium acetate, pH 5.0, 0.008% Triton X-100).
After the incubation for reaction, 50 μl of 8.0 μg/ml Streptavidin-XL665 (CIS bio international) dissolved in phosphate buffer (150 mmol/L K2 HPO4—KH2 PO4, pH 7.0, 0.008% Triton X-100, 0.8 mol/L KF) was added to each well and left stand at 30° C. for 45 minutes. After then, fluorescence intensity was measured (excitation wavelength: 320 nm, measuring wavelength: 620 nm and 665 nm) using Wallac 1420 multilabel counter (Perkin Elmer life sciences).

The nature of data set [2]: Metabolism stability test. The data set is classed as in vitro ADME. Particulars: human liver microsomes 0.5 mg protein/mL, 1 mmol/L NADPH, 37° C., 30 minutes. As to the method:
Using a commercially available pooled human liver microsomes, a compound of the present invention is reacted for a constant time, a remaining rate is calculated by comparing a reacted sample and an unreacted sample, thereby, a degree of metabolism in liver was assessed.
A reaction was performed (oxidative reaction) at 37° C. for 0 minute or 30 minutes in the presence of 1 mmol/L NADPH in 0.2 mL of a buffer (50 mmol/L Tris-HCl pH 7.4, 150 mmol/L potassium chloride, 10 mmol/L magnesium chloride) containing 0.5 mg protein/mL of human liver microsomes. After the reaction, 50 μL of the reaction solution was added to 100 μL of a methanol/acetonitrile=1/1 (v/v), mixed and centrifuged at 3000 rpm for 15 minutes. The compound of the present invention in the supernatant was quantified by LC/MS/MS, and a remaining amount of the compound of the present invention after the reaction was calculated, letting a compound amount at 0 minute reaction time to be 100%.
(Liver microsomes are a subcellular fraction often used to study metabolism.)

Data set [3] deals with T2, CYP3A4 enzyme (enzyme expressed in Escherichia coli) (Homo sapiens, UniProt P08684).
T2 construct: host or cells: Escherichia coli
T2 sequence (P08684 whole entry): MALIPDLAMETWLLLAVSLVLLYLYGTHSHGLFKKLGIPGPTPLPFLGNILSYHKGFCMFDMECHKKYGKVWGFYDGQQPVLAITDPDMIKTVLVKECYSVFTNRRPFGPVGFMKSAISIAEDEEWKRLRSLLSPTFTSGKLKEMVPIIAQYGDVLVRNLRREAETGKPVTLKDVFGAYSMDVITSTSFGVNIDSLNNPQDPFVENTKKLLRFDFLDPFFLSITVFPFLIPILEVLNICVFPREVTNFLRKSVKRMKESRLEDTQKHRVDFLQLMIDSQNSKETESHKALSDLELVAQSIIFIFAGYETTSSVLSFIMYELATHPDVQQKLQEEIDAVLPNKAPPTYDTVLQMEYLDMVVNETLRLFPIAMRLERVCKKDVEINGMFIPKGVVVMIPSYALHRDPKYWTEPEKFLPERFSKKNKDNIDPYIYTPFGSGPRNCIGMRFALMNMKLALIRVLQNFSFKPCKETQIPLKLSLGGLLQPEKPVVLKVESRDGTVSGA
Kind of data set: CYP3A4 fluorescent MBI test. The data set is classed as in vitro ADME. Particulars: 7-BFC substrate, pre-reaction time 0 or 30 minutes. As to the method: The CYP3A4 fluorescent MBI test is a test of investigating enhancement of CYP3A4 inhibition of a compound by a metabolism reaction. 7-benzyloxytrifluoromethylcoumarin (7-BFC) is debenzylated by the CYP3A4 enzyme (enzyme expressed in Escherichia coli) and 7-hydroxytrifluoromethylcoumarin (7-HFC) is produced as a fluorescing metabolite. The test is performed using 7-HFC production reaction as an index.
The reaction conditions are as follows: substrate, 5.6 μmol/L 7-BFC; pre-reaction time, 0 or 30 minutes; substrate reaction time, 15 minutes; reaction temperature, 25° C. […]
An enzyme in a K-Pi buffer (pH 7.4) and a compound of the present invention solution as a pre-reaction solution were added to a 96-well plate at the composition of the pre-reaction. […] Fluorescent values of 7-HFC as a metabolite were measured in each index reaction plate with a fluorescent plate reader. […]
The sample adding DMSO to a reaction system instead of compound of the present invention solution was adopted as a control (100%) because DMSO is used as a solvent to dissolve a compound of the present invention. Remaining activity (%) was calculated at each concentration of the compound of the present invention added as the solution, and IC50 was calculated by reverse-presumption by a logistic model using a concentration and an inhibition rate. […]

The target in the next data set is T3, CYP3A4 (Homo sapiens, UniProt P08684).
T3 construct: The commercially available pooled human liver microsomes were used; from tissue; host or cells: pooled human liver microsomes
T3 sequence (P08684 whole entry): as above
Kind of data set: CYP inhibition test, terfenadine hydroxylation. Format: in vitro ADME. Particulars: pooled human liver microsomes, 1 μmol/L terfenadine. The text has this: (§1) The test is to assess the inhibitory effect of a compound of the present invention towards typical substrate metabolism reactions on CYP enzymes in human liver microsomes. The commercially available pooled human liver microsomes were used.
(§2) The marker reactions on human main five CYP enzymes (CYP1A2, 2C9, 2C19, 2D6, and 3A4) were used as follows; 7-ethoxyresorufin O-deethylation (CYP1A2), tolbutamide methyl-hydroxylation (CYP2C9), mephenyloin 4′-hydroxylation (CYP2C19), dextromethorphan O-demethylation (CYP2D6), and terfenadine hydroxylation (CYP3A4 […]
(§3) Five kinds of substrates, human liver microsomes, or a compound of the present invention in 50 mmol/L Hepes buffer was added to a 96-well plate at the composition as described above as a reaction solution. […] After the centrifugation at 3000 rpm for 15 minutes, resorufin (CYP1A2 metabolite) in the supernatant was quantified by a fluorescent plate reader, and hydroxytolbutamide (CYP2C9 metabolite), 4′-hydroxymephenyloin (CYP2C19 metabolite), dextrorphan (CYP2D6 metabolite), and terfenadine alcohol metabolite (CYP3A4 metabolite) in the supernatant were quantified by LC/MS/MS. […]

The next data set has as its target T4, CYP2C19 (Homo sapiens, UniProt P33261).
T4 construct: The commercially available pooled human liver microsomes were used; from tissue; host or cells: pooled human liver microsomes
Kind of data set: CYP inhibition test, mephenyloin 4'-hydroxylation. Format: in vitro ADME. Particulars: pooled human liver microsomes, 50 μmol/L S-mephenyloin.
Source text: as §1, §2, §3

The next data set has as its target T5, CYP2D6 (Homo sapiens, UniProt P10635).
T5 construct: The commercially available pooled human liver microsomes were used; from tissue; host or cells: pooled human liver microsomes
Kind of data set: CYP inhibition test, dextromethorphan O-demethylation. Format: in vitro ADME. Particulars: pooled human liver microsomes, 5 μmol/L dextromethorphan.
Source text: as §1, §2, §3

Another data set deals with T6, CYP2C9 (Homo sapiens, UniProt P11712).
T6 construct: The commercially available pooled human liver microsomes were used; from tissue; host or cells: pooled human liver microsomes
T6 sequence (P11712 whole entry): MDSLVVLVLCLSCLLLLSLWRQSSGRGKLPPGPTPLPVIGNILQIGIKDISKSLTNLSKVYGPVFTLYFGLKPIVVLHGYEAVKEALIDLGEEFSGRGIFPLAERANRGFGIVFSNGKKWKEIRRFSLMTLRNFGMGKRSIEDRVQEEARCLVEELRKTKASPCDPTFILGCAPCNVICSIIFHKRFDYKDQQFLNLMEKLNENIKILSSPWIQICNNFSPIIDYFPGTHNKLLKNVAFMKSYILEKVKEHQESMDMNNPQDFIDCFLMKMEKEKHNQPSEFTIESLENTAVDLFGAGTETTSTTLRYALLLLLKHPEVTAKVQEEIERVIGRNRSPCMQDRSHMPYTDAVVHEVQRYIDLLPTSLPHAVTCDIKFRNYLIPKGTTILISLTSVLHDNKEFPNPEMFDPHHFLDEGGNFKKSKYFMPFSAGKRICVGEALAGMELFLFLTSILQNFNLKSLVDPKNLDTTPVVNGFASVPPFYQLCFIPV
Kind of data set: CYP inhibition test, tolbutamide methyl-hydroxylation. The data set is classed as in vitro ADME. Particulars: pooled human liver microsomes, 100 μmol/L tolbutamide.
Source text: as §1, §2, §3

The next data set addresses T7, CYP1A2 (Homo sapiens, UniProt P05177).
T7 construct: The commercially available pooled human liver microsomes were used; from tissue; host or cells: pooled human liver microsomes
T7 sequence (P05177 1-516): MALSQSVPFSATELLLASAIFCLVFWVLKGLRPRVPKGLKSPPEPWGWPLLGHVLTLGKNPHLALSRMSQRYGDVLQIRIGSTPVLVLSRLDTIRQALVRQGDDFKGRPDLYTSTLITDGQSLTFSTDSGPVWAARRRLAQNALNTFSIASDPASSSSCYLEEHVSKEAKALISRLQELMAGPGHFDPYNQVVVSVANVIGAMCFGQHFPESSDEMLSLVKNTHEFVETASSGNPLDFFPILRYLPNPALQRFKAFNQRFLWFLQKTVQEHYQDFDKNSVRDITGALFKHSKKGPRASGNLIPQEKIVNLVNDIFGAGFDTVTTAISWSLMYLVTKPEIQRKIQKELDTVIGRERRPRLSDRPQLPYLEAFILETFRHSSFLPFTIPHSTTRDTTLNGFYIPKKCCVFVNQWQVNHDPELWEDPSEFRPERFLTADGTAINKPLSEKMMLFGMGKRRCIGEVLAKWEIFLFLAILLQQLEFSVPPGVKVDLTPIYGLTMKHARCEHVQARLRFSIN
The experiment in a line: CYP inhibition test, 7-ethoxyresorufin O-deethylation. The data set is classed as in vitro ADME. Particulars: pooled human liver microsomes, 0.5 μmol/L ethoxyresorufin.
Source text: as §1, §2, §3

T1 sequence (P56817 46-501): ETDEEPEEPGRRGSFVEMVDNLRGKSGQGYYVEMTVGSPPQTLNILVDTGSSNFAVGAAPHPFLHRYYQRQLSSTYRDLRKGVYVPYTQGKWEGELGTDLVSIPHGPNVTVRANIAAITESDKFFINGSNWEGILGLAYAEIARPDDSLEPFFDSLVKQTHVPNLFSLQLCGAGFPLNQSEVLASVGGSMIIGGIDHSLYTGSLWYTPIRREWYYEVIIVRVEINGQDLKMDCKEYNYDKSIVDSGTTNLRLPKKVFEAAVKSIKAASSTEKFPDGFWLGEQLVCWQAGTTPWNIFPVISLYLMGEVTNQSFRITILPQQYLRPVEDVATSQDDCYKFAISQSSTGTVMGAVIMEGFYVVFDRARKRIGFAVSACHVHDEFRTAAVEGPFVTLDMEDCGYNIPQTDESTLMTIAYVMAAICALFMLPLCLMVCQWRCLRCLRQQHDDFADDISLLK
T5 sequence (P10635 whole entry): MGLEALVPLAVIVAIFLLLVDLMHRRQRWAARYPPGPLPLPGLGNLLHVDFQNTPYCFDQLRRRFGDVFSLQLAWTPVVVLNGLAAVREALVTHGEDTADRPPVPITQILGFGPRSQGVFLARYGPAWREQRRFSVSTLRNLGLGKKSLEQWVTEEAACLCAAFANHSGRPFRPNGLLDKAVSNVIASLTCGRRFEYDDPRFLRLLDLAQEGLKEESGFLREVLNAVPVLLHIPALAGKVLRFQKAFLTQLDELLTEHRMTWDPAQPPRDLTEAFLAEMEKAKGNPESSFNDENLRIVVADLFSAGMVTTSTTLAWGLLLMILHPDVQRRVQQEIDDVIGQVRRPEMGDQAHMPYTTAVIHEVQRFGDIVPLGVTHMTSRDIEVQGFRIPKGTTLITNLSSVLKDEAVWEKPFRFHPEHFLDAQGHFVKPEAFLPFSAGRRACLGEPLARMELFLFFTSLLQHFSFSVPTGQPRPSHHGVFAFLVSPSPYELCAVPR
T4 sequence (P33261 whole entry): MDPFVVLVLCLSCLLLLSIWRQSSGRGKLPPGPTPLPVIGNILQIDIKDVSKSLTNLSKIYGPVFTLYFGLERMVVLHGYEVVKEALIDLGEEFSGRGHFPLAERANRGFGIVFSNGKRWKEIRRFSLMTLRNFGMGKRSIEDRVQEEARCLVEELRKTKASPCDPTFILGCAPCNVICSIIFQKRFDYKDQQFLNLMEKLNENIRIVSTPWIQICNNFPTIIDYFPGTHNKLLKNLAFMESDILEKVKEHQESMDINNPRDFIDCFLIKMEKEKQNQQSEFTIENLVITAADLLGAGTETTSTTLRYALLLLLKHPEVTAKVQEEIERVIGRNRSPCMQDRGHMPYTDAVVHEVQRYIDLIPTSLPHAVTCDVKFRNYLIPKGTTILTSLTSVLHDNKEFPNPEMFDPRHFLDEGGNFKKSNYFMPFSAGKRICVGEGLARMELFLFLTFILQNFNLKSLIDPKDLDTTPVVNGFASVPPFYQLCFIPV

By solubility is commonly meant the concentration that dissolves in the medium under given conditions. As to `CC1=C[C@@](C)(c2cc(NC(=O)c3ccc(C(F)F)cn3)ccc2F)N=C(N)O1` [Compound I-5], the solubility at 4 h in data set [1] was greater than 40 µM.
For `C[C@@]1(c2cc(NC(=O)c3cnc(OC(F)F)cn3)ccc2F)C=COC(N)=N1` [Compound I-8], the IC50 at Recombinant human BACE1 amounted to 10.3 nM. Moreover, the “remaining amount of the compound after the reaction” value in data set [2] amounted to 99%.
In the case of `C[C@@]1(c2cc(NC(=O)c3ccc(C#N)cn3)ccc2F)C=C(CO)OC(N)=N1` [Compound I-4], at Recombinant human BACE1, the IC50 worked out at 10.6 nM.
`CC1=C[C@@](C)(c2cc(NC(=O)c3cnc(OCF)cn3)ccc2F)N=C(N)O1` [Compound I-1]: the “CYP3A4 MBI: difference of IC50 without and with preincubation” value in data set [3] is on record as “(−) (the difference is 3 μM or less)”.
For `C[C@@]1(c2cc(NC(=O)c3ncc(C#N)cc3F)ccc2F)C=COC(N)=N1` [Compound I-9], the IC50 against CYP3A4, against CYP2C19, on CYP2D6, at CYP2C9 and on CYP1A2 was greater than 20000 nM each time.
On to `C[C@@]1(c2cc(NC(=O)c3ccc(C#N)cn3)ccc2F)C=C(C(F)F)OC(N)=N1` [Compound I-2], for which the IC50 at Recombinant human BACE1 came out at 5.3 nM.
On the same count and under the same terms, next, `CC1=C[C@@](C)(c2cc(NC(=O)c3ccc(C#N)cn3)ccc2Cl)N=C(N)O1` [Compound I-11]: 64 nM.
